Literature values as cited in patent US7727757B2, “Methods of eliciting antiviral immune responses utilizing viral particles comprising photoinactivated reverse transcriptase” (priority 1998, dated 2010).
Entries after “also recorded” stand apart in the source; their conditions may differ.

Experiments:
[1] = biological target: HIV-1 reverse transcriptase (Human immunodeficiency virus type 1 group M subtype B, UniProt P04585); conditions: for inhibition of RT (in words): prior-art statement; for IC50: value stated without method or source, used to set the incubation concentration, read-out: IC50 (50% inhibitory concentration)
HIV = conditions: short exposure, without photoinactivation
HIV infected cells = conditions: compound provided to HIV infected cells

SMILES | inhibition of ERT in HIV virions (ERT in HIV virions) | inhibition of RT (in words) [1] | IC50 [1] | HIV infectivity after exposure of isolated virus (HIV) | infectivity of nascent virus from HIV infected cells (HIV infected cells)
CC(C)=CCOc1cc(NC(=S)c2ccoc2C)ccc1Cl [UC781™, N-[4-chloro-3-(3-methyl-2-butenyloxy)phenyl]-2-methyl-3-furanocarbothiamide] | inhibit ERT in HIV virions | potent inhibitors of RT | 0.2 nM | eliminate HIV infectivity | production of noninfectious nascent virus; also recorded: inactivate nascent virus from HIV-infected cells
CCN1c2cc(N=[N+]=[N-])ccc2N(C)C(=O)c2cccnc21 [azido dipyridodiazepinona, 9-Azido-5,6-dihydro-11-ethyl-6-methyl-11H-pyrido[2,3-b][1,5]benzodiazepin-5-one] | – | potent inhibitors of RT | 160 nM | – | –
